# Source: patent publication US20240189495A1, “METHODS OF PREPARING AN EXTRACORPOREAL CIRCUIT FOR ANTICOAGULATION” (Lawell Therapeutics, LLC, priority 2021, published 2024)
# Legend:
# Type in all cases: physicochemical
# [1] = Saturation of polyacrylonitrile filter by repeated replenishment of nafamostat solution (Example 8)
# Method: To determine if a polyacrylonitrile filter can be saturated, and if so, what quantity of nafamostat would be required, an in vitro experiment was conducted wherein 632 milligrams of nafamostat were passed through the filter in the same manner as described in FIG. 5 for 20 minutes. Then the solution was replenished with an additional 632 milligrams (solution B-1), which was circulated for an additional 20 minutes, followed by replenishment with an additional 632 milligrams (solution B-2), which was circulated for an additional 20 minutes and finally replenished with an additional 379 milligrams. The total quantity of 2275 milligrams represents a three-day consumption of nafamostat at the maximum dose of 31.2 mg/h. As one can see from Table 4, nafamostat continues to adsorb to the polyacrylonitrile filter even after the entire quantity of 2275 milligrams has been delivered.
# [2] = Adsorption of nafamostat to circuit tubing, in vitro dialysis circuit without filter, HPLC; settings: for Percent of Nafamostat Remaining as a Ratio of the Starting Concentration at Time 0: tubing only, no filter
# Method: A dialysis apparatus was established as described in FIG. 5 without using a filter. An experiment was conducted to determine the adsorption characteristics to the tubing. The solution was circulated through the tubing at typical CRRT flow rates of 100-300 milliliters per minute (FIG. 5). The concentration of nafamostat was measured via HPLC at 0, 5, 10 and 20 minutes. Only one reservoir of nafamostat was used. Therefore, any change in concentration represents adsorption since the molecule cannot escape the system. […] Therefore, any change in concentration can be attributed to adsorption onto the filter membrane tested.
# [3] = Filter membrane adsorption in in vitro dialysis circuit, HPLC; settings: for Quantity (% nafamostat free base) remaining after the initiation of priming: 500 mL; for Quantity (mcg nafamostat free base) adsorbed over time (minutes), Avg.: average of 5, 10, 20 min; for Time in which the change in concentration is complete: regardless the solution concentration
# Method: A dialysis apparatus was established as described in FIG. 5 using a PS, PES, PAES, or a PAN filter. A series of experiments was conducted using various filter membranes in an in vitro model to determine the filter membrane adsorption characteristics. A solution of nafamostat was circulated through the blood and dialysate sides of the filter at typical CRRT flow rates of 100-300 milliliters per minute. The concentration of nafamostat was measured via HPLC at 0, 5, 10 and 20 minutes. Only one reservoir of nafamostat was used. Therefore, any change in concentration represents adsorption since the molecule cannot escape the system. The following filters were used: Polyethersulfone (PES) from […], part number CAR-505; Polyarylethersulfone (PAES) from Baxter, part number HF1000; Polyacrylonitrile (PAN) from Baxter, part number M100; Polysulfone (PS) from Baxter, part number F50; no filter, tubing only from Baxter, part number M100. Baxter tubing was used for all filter tests.
structure (smiles),measurement,setting,value
"N=C(N)c1ccc2cc(OC(=O)c3ccc(N=C(N)N)cc3)ccc2c1 [Nafamostat, nafamostat]",Amount of Nafamostat Remaining as a Ratio of the Starting Concentration at Time 0,"[1]; Example 8, Solution A 632 mg, 0 min",99.2%
same,Amount of Nafamostat Remaining as a Ratio of the Starting Concentration at Time 0,"[1]; Example 8, Solution A 632 mg, 5 min",8.5%
same,Amount of Nafamostat Remaining as a Ratio of the Starting Concentration at Time 0,"[1]; Example 8, Solution A 632 mg, 10 min",0.8%
same,Amount of Nafamostat Remaining as a Ratio of the Starting Concentration at Time 0,"[1]; Example 8, Solution A 632 mg, 20 min",0.0%
same,Amount of Nafamostat Remaining as a Ratio of the Starting Concentration at Time 0,"[1]; Example 8, Solution B-1, added 632 mg, 0 min",100.0%
same,Amount of Nafamostat Remaining as a Ratio of the Starting Concentration at Time 0,"[1]; Example 8, Solution B-1, added 632 mg, 5 min",14.6%
same,Amount of Nafamostat Remaining as a Ratio of the Starting Concentration at Time 0,"[1]; Example 8, Solution B-1, added 632 mg, 10 min",6.2%
same,Amount of Nafamostat Remaining as a Ratio of the Starting Concentration at Time 0,"[1]; Example 8, Solution B-1, added 632 mg, 20 min",3.1%
same,Amount of Nafamostat Remaining as a Ratio of the Starting Concentration at Time 0,"[1]; Example 8, Solution B-2, added 632 mg, 0 min",100.0%
same,Amount of Nafamostat Remaining as a Ratio of the Starting Concentration at Time 0,"[1]; Example 8, Solution B-2, added 632 mg, 5 min",20.0%
same,Amount of Nafamostat Remaining as a Ratio of the Starting Concentration at Time 0,"[1]; Example 8, Solution B-2, added 632 mg, 10 min",14.6%
same,Amount of Nafamostat Remaining as a Ratio of the Starting Concentration at Time 0,"[1]; Example 8, Solution B-2, added 632 mg, 20 min",10.8%
same,Amount of Nafamostat Remaining as a Ratio of the Starting Concentration at Time 0,"[1]; Example 8, Solution B-3, added 379 mg, 0 min",100.0%
same,Amount of Nafamostat Remaining as a Ratio of the Starting Concentration at Time 0,"[1]; Example 8, Solution B-3, added 379 mg, 5 min",20.8%
same,Amount of Nafamostat Remaining as a Ratio of the Starting Concentration at Time 0,"[1]; Example 8, Solution B-3, added 379 mg, 10 min",19.2%
same,Amount of Nafamostat Remaining as a Ratio of the Starting Concentration at Time 0,"[1]; Example 8, Solution B-3, added 379 mg, 20 min",17.7%
same,Saturation of the PAN filter with nafamostat,[1]; total quantity of 2275 milligrams delivered,cannot be saturated
same,Percent of Nafamostat Remaining as a Ratio of the Starting Concentration at Time 0,[2]; 0 min,100%
same,Percent of Nafamostat Remaining as a Ratio of the Starting Concentration at Time 0,[2]; 5 min,100%
same,Percent of Nafamostat Remaining as a Ratio of the Starting Concentration at Time 0,[2]; 10 min,101%
same,Percent of Nafamostat Remaining as a Ratio of the Starting Concentration at Time 0,[2]; 20 min,100%
same,Adsorption onto the tubing,[2]; tubing used for all tests,does not adsorb substantially
same,Quantity (% nafamostat free base) remaining after the initiation of priming,"[3]; Example 2, PS F50, 158 mcg/mL, 0 min",100%
same,Quantity (% nafamostat free base) remaining after the initiation of priming,"[3]; Example 2, PS F50, 158 mcg/mL, 5 min",96.7%
same,Quantity (% nafamostat free base) remaining after the initiation of priming,"[3]; Example 2, PS F50, 158 mcg/mL, 10 min",96.8%
same,Quantity (% nafamostat free base) remaining after the initiation of priming,"[3]; Example 2, PS F50, 158 mcg/mL, 20 min",97.2%
same,Quantity (mcg nafamostat free base) adsorbed over time (minutes),"[3]; Example 2, PS F50, prime quantity 79,000 mcg, 5 min","2,620 mcg"
same,Quantity (mcg nafamostat free base) adsorbed over time (minutes),"[3]; Example 2, PS F50, prime quantity 79,000 mcg, 10 min","2,559 mcg"
same,Quantity (mcg nafamostat free base) adsorbed over time (minutes),"[3]; Example 2, PS F50, prime quantity 79,000 mcg, 20 min","2,222 mcg"
same,"Quantity (mcg nafamostat free base) adsorbed over time (minutes), Avg.","[3]; Example 2, PS F50, prime quantity 79,000 mcg","2,467 mcg"
same,Quantity (% nafamostat free base) remaining after the initiation of priming,"[3]; Example 3, PES CAR-505, 158 mcg/mL, 0 min",100%
same,Quantity (% nafamostat free base) remaining after the initiation of priming,"[3]; Example 3, PES CAR-505, 158 mcg/mL, 5 min",95.6%
same,Quantity (% nafamostat free base) remaining after the initiation of priming,"[3]; Example 3, PES CAR-505, 158 mcg/mL, 10 min",95.6%
same,Quantity (% nafamostat free base) remaining after the initiation of priming,"[3]; Example 3, PES CAR-505, 158 mcg/mL, 20 min",95.6%
same,Quantity (mcg nafamostat free base) adsorbed over time (minutes),"[3]; Example 3, PES CAR-505, prime quantity 79,000 mcg, 5 min","3,555 mcg"
same,Quantity (mcg nafamostat free base) adsorbed over time (minutes),"[3]; Example 3, PES CAR-505, prime quantity 79,000 mcg, 10 min","3,555 mcg"
same,Quantity (mcg nafamostat free base) adsorbed over time (minutes),"[3]; Example 3, PES CAR-505, prime quantity 79,000 mcg, 20 min","3,555 mcg"
same,"Quantity (mcg nafamostat free base) adsorbed over time (minutes), Avg.","[3]; Example 3, PES CAR-505, prime quantity 79,000 mcg","3,555 mcg"
same,Quantity (% nafamostat free base) remaining after the initiation of priming,"[3]; Example 4, PAES HF1000, 158 mcg/mL, 0 min",100%
same,Quantity (% nafamostat free base) remaining after the initiation of priming,"[3]; Example 4, PAES HF1000, 158 mcg/mL, 5 min",96.9%
same,Quantity (% nafamostat free base) remaining after the initiation of priming,"[3]; Example 4, PAES HF1000, 158 mcg/mL, 10 min",97.2%
same,Quantity (% nafamostat free base) remaining after the initiation of priming,"[3]; Example 4, PAES HF1000, 158 mcg/mL, 20 min",97.1%
same,Quantity (mcg nafamostat free base) adsorbed over time (minutes),"[3]; Example 4, PAES HF1000, prime quantity 79,000 mcg, 5 min","2,446 mcg"
same,Quantity (mcg nafamostat free base) adsorbed over time (minutes),"[3]; Example 4, PAES HF1000, prime quantity 79,000 mcg, 10 min","2,184 mcg"
same,Quantity (mcg nafamostat free base) adsorbed over time (minutes),"[3]; Example 4, PAES HF1000, prime quantity 79,000 mcg, 20 min","2,261 mcg"
same,"Quantity (mcg nafamostat free base) adsorbed over time (minutes), Avg.","[3]; Example 4, PAES HF1000, prime quantity 79,000 mcg","2,297 mcg"
same,Quantity (% nafamostat free base) remaining after the initiation of priming,"[3]; Example 5, PAN M100, 158 mcg/mL, 0 min",98.7%
same,Quantity (% nafamostat free base) remaining after the initiation of priming,"[3]; Example 5, PAN M100, 158 mcg/mL, 5 min",20.5%
same,Quantity (% nafamostat free base) remaining after the initiation of priming,"[3]; Example 5, PAN M100, 158 mcg/mL, 10 min",4.3%
same,Quantity (% nafamostat free base) remaining after the initiation of priming,"[3]; Example 5, PAN M100, 158 mcg/mL, 20 min",0.3%
same,Quantity (mcg nafamostat free base) adsorbed over time (minutes),"[3]; Example 5, PAN M100, prime quantity 79,000 mcg, 5 min","61,770 mcg"
same,Quantity (mcg nafamostat free base) adsorbed over time (minutes),"[3]; Example 5, PAN M100, prime quantity 79,000 mcg, 10 min","74,594 mcg"
same,Quantity (mcg nafamostat free base) adsorbed over time (minutes),"[3]; Example 5, PAN M100, prime quantity 79,000 mcg, 20 min","77,732 mcg"
same,"Quantity (mcg nafamostat free base) adsorbed over time (minutes), Avg.","[3]; Example 5, PAN M100, prime quantity 79,000 mcg","71,365 mcg"
same,Quantity (% nafamostat free base) remaining after the initiation of priming,"[3]; Example 6, PAN M100, 316 mcg/mL, 0 min",99.5%
same,Quantity (% nafamostat free base) remaining after the initiation of priming,"[3]; Example 6, PAN M100, 316 mcg/mL, 5 min",20.4%
same,Quantity (% nafamostat free base) remaining after the initiation of priming,"[3]; Example 6, PAN M100, 316 mcg/mL, 10 min",4.3%
same,Quantity (% nafamostat free base) remaining after the initiation of priming,"[3]; Example 6, PAN M100, 316 mcg/mL, 20 min",0.4%
same,Quantity (mcg nafamostat free base) adsorbed over time (minutes),"[3]; Example 6, PAN M100, prime quantity 158,000 mcg, 5 min","124,946 mcg"
same,Quantity (mcg nafamostat free base) adsorbed over time (minutes),"[3]; Example 6, PAN M100, prime quantity 158,000 mcg, 10 min","150,288 mcg"
same,Quantity (mcg nafamostat free base) adsorbed over time (minutes),"[3]; Example 6, PAN M100, prime quantity 158,000 mcg, 20 min","156,502 mcg"
same,"Quantity (mcg nafamostat free base) adsorbed over time (minutes), Avg.","[3]; Example 6, PAN M100, prime quantity 158,000 mcg","143,912 mcg"
same,Quantity (% nafamostat free base) remaining after the initiation of priming,"[3]; Example 7, PAN M100, 632 mcg/mL, 0 min",99.1%
same,Quantity (% nafamostat free base) remaining after the initiation of priming,"[3]; Example 7, PAN M100, 632 mcg/mL, 5 min",17.4%
same,Quantity (% nafamostat free base) remaining after the initiation of priming,"[3]; Example 7, PAN M100, 632 mcg/mL, 10 min",2.7%
same,Quantity (% nafamostat free base) remaining after the initiation of priming,"[3]; Example 7, PAN M100, 632 mcg/mL, 20 min",0.04%
same,Quantity (mcg nafamostat free base) adsorbed over time (minutes),"[3]; Example 7, PAN M100, prime quantity 316,000 mcg, 5 min","258,314 mcg"
same,Quantity (mcg nafamostat free base) adsorbed over time (minutes),"[3]; Example 7, PAN M100, prime quantity 316,000 mcg, 10 min","304,629 mcg"
same,Quantity (mcg nafamostat free base) adsorbed over time (minutes),"[3]; Example 7, PAN M100, prime quantity 316,000 mcg, 20 min","313,065 mcg"
same,"Quantity (mcg nafamostat free base) adsorbed over time (minutes), Avg.","[3]; Example 7, PAN M100, prime quantity 316,000 mcg","292,003 mcg"
same,Time in which the change in concentration is complete,[3]; non-PAN filter (PAES),≤ 5 min
same,Time in which the change in concentration is complete,[3]; non-PAN filter (PES),≤ 5 min
same,Time in which the change in concentration is complete,[3]; non-PAN filter (PS),≤ 5 min
same,Change in concentration in the PAN filters,[3]; within the first 5 minutes,80%
same,Change in concentration in the PAN filters,[3]; within the first 10 minutes,95%
same,Change in concentration in the PAN filters,[3]; within the first 15 minutes,99%
same,Change in concentration in the PAN filters,[3]; within the first 20 minutes,99.5%
